Measured values published in patent publication US5858978A, “Pharmaceutical compositions containing calcitonin gene-related peptide (CGRP) and use thereof to ameliorate hyperimmune mediated diseases and abnormal conditions” (Yale University, priority 1997, dated 1999).
Like-named read-outs stand apart in the source and are kept apart here.

Columns and labels:
peritoneal macrophages [1] = assay: IL-1 release by peritoneal macrophages (IL-1 bioassay of supernatants); assay type: cell-based, rat; settings: for IL-1 activity detected in peritoneal macrophage supernatants: added to release medium on day 3, 24 hour release
Description: (§1) Rat alveolar and peritoneal macrophages were obtained from 12 week old Fisher 344 rats (Charles River, Kingston, N.Y.). Alveolar macrophages were collected by tracheobronchial lavage as previously described (Vignery et al., J. Histochem Cytochem. , 1989). Peritoneal macrophages were collected from the same rats prior to the lung lavage. The collected cells were: (i) washed twice in Minimum Essential Medium with Earle's salts (MEME) supplemented with 2 mM L-glutamine and vitamins; (ii) plated in 6 well dishes at 10^7 cells/ml, 10^6 cells per well, in MEME containing 10% heat inactivated human serum (HS); (iii) incubated for 20 minutes at 37° C. in 5% CO2, 95% air to let the macrophages adhere; (iv) subsequently grown at 10^6 cells/ml of MEME containing 5% heat inactivated HS. Cells were cultured in FCS for the IL-6 bioassay. All tissue culture reagents were purchased from Gibco Laboratories, Grand Island, N.Y. The adherent cell populations were composed of 99% macrophages and a few occasional polymorphonuclear cells as determined by Wright stain.
(§2) To estimate the release of IL-1 and IL-6 by peritoneal macrophages and fused alveolar macrophages, the cells were collected and cultured as described above. Prior to perform the release, the cells were washed twice with warm MEME and subsequently incubated for 24 hours in 1 ml of MEME supplemented with 5% of HS or FCS, with or without agonist. At the termination of the release, the supernatant were collected, spun at 400 g for 10 minutes, transferred to microfuge tubes and stored at -20° C. until assayed. Macrophages remained adherent and viable in all experiments as determined by DNA measurements and trypan blue exclusion.
(§3) IL-1 activity in the macrophage supernatants was measured according to Gillis and Mizel (Proc. Natl. Acad. Sci., USA, 1981, 78:1133-1137). LBRM-33 cells, clones 1A5 and 5A4 (ATCC, Rockville, Md.) were stimulated with either PHA (Gibco), rm IL-1β or log2 dilutions of the macrophage supernatants. LBRM-33 lymphocyte supernatants were harvested from 24 hour cultures and subsequently tested for IL-2 activity using a standard microassay, Gillis et al. (J. Immunol., 1978, 120:2027-2032), based on the IL-2 dependent exponential proliferation of a murine cytotoxic T-cell line CTLL (ATCC, Rockville, Md.), Gillis and Smith (Nature (London), 1977, 268:154-156). CTLL cells were cultured in the presence of a log2 dilution series of putative IL-2 containing samples. After 24 hours, the cells were exposed to 0.5 μCi[^3 H]dThd (20 mCi/mmol, New England Nuclear) for an additional 4 hours after which the cultures were harvested onto glass fiber filter strips with the aid of a multiple automated sample harvester (MASH 11, Microbiological Associates, Bethesda, Md.) [^3 H]dThd incorporation was determined by direct counting.

[2] = system: giant cells (fused alveolar macrophages); assay: IL-1 release by giant cells (fused alveolar macrophages), IL-1 bioassay of supernatants; assay type: cell-based, rat; settings: added to release medium on day 3, 24 hour release
Description: as §1, §2
IL-1 activity in the macrophage supernatants was measured according to Gillis and Mizel (Proc. Natl. Acad. Sci., USA, 1981, 78:1133-1137). LBRM-33 cells, clones 1A5 and 5A4 (ATCC, Rockville, Md.) were stimulated with either PHA (Gibco), rm IL-1β or log2 dilutions of the macrophage supernatants. […] After 24 hours, the cells were exposed to 0.5 μCi[^3 H]dThd (20 mCi/mmol, New England Nuclear) for an additional 4 hours after which the cultures were harvested onto glass fiber filter strips with the aid of a multiple automated sample harvester (MASH 11, Microbiological Associates, Bethesda, Md.) [^3 H]dThd incorporation was determined by direct counting.
When peritoneal macrophages from the same animals are grown in these conditions, they remain mononucleated and can therefore be used as a nonfusing control population. It was previously confirmed that giant cells differentiate in vitro by actual cell-cell fusion since DNA synthesis cannot be detected and that the total amount of DNA remains constant during culture in both alveolar and peritoneal macrophages. […]

[3] = system: peritoneal macrophages and giant cells; assay: IL-6 release by peritoneal and fused alveolar macrophages (IL-6 bioassay, B13.29 subclone B9); assay type: cell-based, rat
Description: as §1, §2
Five thousand,B13.29 cells subclone B9 (donated by Dr. Thomas Kupper, Washington University of School of Medicine, Washington, Mo.) were cultured in the presence of a log2 dilution series of macrophage supernatants or standard dilutions of rmIL-6 according to Aarden, L. A. ( Eur. J. Immunol., 1987, 17:1411-1416). […]

peritoneal macrophages [4] = assay: Generation of intracellular cAMP in peritoneal macrophages (radioimmunoassay); assay type: cell-based, rat; settings: for cAMP accumulation in peritoneal macrophages: all time points examined
Description: as §1
(§4) For cAMP studies, cells were grown under the conditions described above but using either 24 or 96 well dishes. Each well contained either 2×10^5 or 5×10^4 cells grown in 800 or 200 μl, respectively. The cells were first washed with warm MEME and subsequently incubated at 37° C. in MEME supplemented with BSA (1 mg/ml) (Sigma Chemical, St. Louis, Mo.) either in the absence or presence of Salmon Calcitonin (sCT) (kindly provided by Dr. Orlowski, Rorer Central Research, Horsham, Pa.), rat calcitonin gene-related peptide (CGRP) (Bachem, Inc., Torrance, Calif.) and 3-isobutyl-1-methylxanthine (IBMX)(Sigma) for the indicated times. Incubations were terminated by aspirating the medium and adding 100 μl of 0.4% perchloric acid to each well. Perchloric acid extracts were neutralized with 1.5M KOH and stored at -20° C. These samples were acetylated and cAMP measured by radioimmunoassay using succinylated ^125 I-labeled cARP (Biomedical Technologies, Inc., Stoughton, Ma.). Results were expressed as fentomoles of CAMP per well. Experiments were performed in duplicates or triplicates and repeated at least 3 times.

[5] = system: giant cells (fused alveolar macrophages); assay: Generation of intracellular cAMP in giant cells (fused alveolar macrophages), radioimmunoassay; assay type: cell-based, rat
Description: as §1, §4
When peritoneal macrophages from the same animals are grown in these conditions, they remain mononucleated and can therefore be used as a nonfusing control population. It was previously confirmed that giant cells differentiate in vitro by actual cell-cell fusion since DNA synthesis cannot be detected and that the total amount of DNA remains constant during culture in both alveolar and peritoneal macrophages. Therefore, the actual number of alveolar macrophages is decreased drastically by day 4 when each giant cell contains hundreds of nuclei. The important point is that the total number of nuclei remains constant so that we refer to giant cells and peritoneal macrophages as such or else as number of plated cells.

macrophages = settings: cited from earlier work
LBRM-33 cells = assay: IL-1 bioassay with CGRP added to IL-1 containing medium (LBRM-33 cells, CTLL readout); assay type: cell-based, murine
Description: as §3

[6] = system: chronic rheumatoid arthritis; assay: Treatment of chronic rheumatoid arthritis in a human being; assay type: in vivo; settings: I.M. administration of 0.5 mg every 24 hours until relief
CTLL cells = assay: IL-2 dependent proliferation of CTLL cells treated directly; assay type: cell-based, murine; settings: in the presence of IL-2
Description: as §3

## C=C1/C(=C\C=C2/CCC[C@]3(C)[C@@H]([C@H](C)CCCC(C)(C)O)CC[C@@H]23)C[C@@H](O)C[C@@H]1O [1,25(OH)2 -vitamin D3]
Peritoneal macrophages [1]
  IL-1 activity detected in peritoneal macrophage supernatants: stimulated the proliferation of CTLL cells, and probably IL-1 release
[2]
  IL-1 activity detected in giant cell supernatants: fail to respond
[3]
  IL-6 activity level in macrophage supernatants: neither CGRP nor 1,25(OH)2 -vitamin D3 appear to significantly alter this process

## CC(C)Cn1c(=O)n(C)c(=O)c2[nH]cnc21 [IBMX, 3-isobutyl-1-methylxanthine]
Peritoneal macrophages [4]
  cAMP accumulation in peritoneal macrophages: not able at any time point measured to induce a cAMP accumulation
[5]; fused alveolar macrophages, any time point measured
  cAMP accumulation in giant cells: not able at any time point measured to induce a cAMP accumulation

## C=C[C@@]1(C)CC(=O)[C@]2(O)[C@@]3(C)[C@@H](O)CCC(C)(C)[C@@H]3[C@H](O)[C@H](OC(C)=O)[C@@]2(C)O1 [forskolin]
Peritoneal macrophages [1]
  IL-1 activity detected in peritoneal macrophage supernatants: as effective as CGRP in blocking the secretion of IL-1
[2]
  IL-1 activity detected in giant cell supernatants: as effective as CGRP in blocking the secretion of IL-1

## CC(C)C[C@H](NC(=O)[C@H](CCCCN)NC(=O)CNC(=O)[C@H](CC(C)C)NC(=O)[C@@H](NC(=O)[C@@H]1CSSC[C@H](N)C(=O)N[C@@H](CO)C(=O)N[C@@H](CC(N)=O)C(=O)N[C@@H](CC(C)C)C(=O)N[C@@H](CO)C(=O)N[C@@H]([C@@H](C)O)C(=O)N1)C(C)C)C(=O)N[C@@H](CO)C(=O)N[C@@H](CCC(N)=O)C(=O)N[C@@H](CCC(=O)O)C(=O)N[C@@H](CC(C)C)C(=O)N[C@@H](Cc1c[nH]cn1)C(=O)N[C@@H](CCCCN)C(=O)N[C@@H](CC(C)C)C(=O)N[C@@H](CCC(N)=O)C(=O)N[C@H](C(=O)N[C@@H](Cc1ccc(O)cc1)C(=O)N1CCC[C@H]1C(=O)N[C@@H](CCCNC(=N)N)C(=O)N[C@H](C(=O)N[C@@H](CC(N)=O)C(=O)N[C@H](C(=O)NCC(=O)N[C@@H](CO)C(=O)NCC(=O)N[C@H](C(=O)N1CCC[C@H]1C(N)=O)[C@@H](C)O)[C@@H](C)O)[C@@H](C)O)[C@@H](C)O [sCT, Salmon Calcitonin]
Peritoneal macrophages [4]
  cAMP accumulation in peritoneal macrophages: failed to induce a response
[2]
  IL-1 activity detected in giant cell supernatants: reduced significantly
[5]; fused alveolar macrophages, absence of IBMX
  time of peak of cAMP accumulation after addition of the peptide: 5 min
[5]; fused alveolar macrophages, with 10 μM IBMX
  lag time to cAMP accumulation: 2 min
[5]; giant cells, absence of IBMX
  time at which cAMP returned to basal level: 15 min
[5]; giant cells, presence of IBMX
  time at which cAMP returned to basal level: 30 min
[5]; giant cells, sCT dose response
  half maximal cAMP accumulation: 50 fmoles per 6.4×10^4 plated cells
[5]; giant cells, sCT dose response, read-out: concentration for half maximal stimulation of cAMP accumulation
  EC50: 2 nM
[3]
  IL-6 activity level in macrophage supernatants: neither sCT nor CGRP treatment of the cells modified this level

## Rat Calcitonin Gene-Related Peptide [CGRP]
Peritoneal macrophages [4]; peritoneal macrophages, 2 minutes incubation in the presence of IBMX
  half maximal concentration of cAMP: 80 fmoles per 5×10^4 plated cells
Peritoneal macrophages [4]; peritoneal macrophages, 2 minutes incubation in the presence of IBMX, read-out: concentration giving half maximal concentration of cAMP
  EC50: 2 nM
macrophages
  ability of macrophages to act as APC: profoundly inhibit
  ability of macrophages to produce H2O2 in response to IFN: profoundly inhibit
Peritoneal macrophages [1]; 1,25(OH)2-vitamin D3 stimulated peritoneal macrophages
  IL-1 bioactivity in supernatants of vitamin D3 stimulated peritoneal macrophages: reduce significantly
Peritoneal macrophages [1]
  IL-1 activity detected in peritoneal macrophage supernatants: prevented the release of IL-1 by both cell types
LBRM-33 cells
  proliferative response of CTLL cytotoxic T cells in the IL-1 bioassay: prevents the proliferative response
[6]
  symptoms of the disease, e.g. pain and swelling of the affected joints: amelioration of the symptoms of the disease
[2]
  IL-1 activity detected in giant cell supernatants: prevented the release of IL-1 by both cell types
CTLL cells
  proliferation of CTLL cells: did not prevent significantly their proliferation
[5]; fused alveolar macrophages, 2 minutes incubation in the presence of IBMX
  half maximal concentration of cAMP: 300 fmoles per 5×10^4 plated cells
[5]; fused alveolar macrophages, 2 minutes incubation in the presence of IBMX, read-out: concentration giving half maximal concentration of cAMP
  EC50: 2 nM
[5]; macrophages, comparison CGRP vs CT
  cAMP accumulation compared with CT: larger accumulation of cAMP in macrophages than CT
[3]
  IL-6 activity level in macrophage supernatants: neither sCT nor CGRP treatment of the cells modified this level

## calcitonin [CT]
macrophages
  macrophage activation: prevented macrophage activation
